Assay results published in ChEMBL document CHEMBL3351920, “Biased and unbiased strategies to identify biologically active small molecules” (Bioorg Med Chem, 2014).
Each block holds one compound with its values, some of them ahead of it.

Legend:
Beta-casein = target: T1, Beta-casein (Bos taurus, UniProt P02666); test: Binding affinity to bovine beta-casein A1
T1 sequence (P02666 whole entry): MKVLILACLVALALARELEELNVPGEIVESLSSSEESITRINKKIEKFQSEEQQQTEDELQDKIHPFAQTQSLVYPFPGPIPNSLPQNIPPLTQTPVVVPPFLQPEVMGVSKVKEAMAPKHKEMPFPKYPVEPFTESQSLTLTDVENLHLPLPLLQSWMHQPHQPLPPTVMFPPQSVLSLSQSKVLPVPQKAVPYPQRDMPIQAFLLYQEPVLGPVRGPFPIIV

Bcl-2-like protein 10 = target: T2, Bcl-2-like protein 10 (Homo sapiens, UniProt Q9HD36); test: Binding affinity to Bcl-b (unknown origin)
T2 sequence (Q9HD36 whole entry): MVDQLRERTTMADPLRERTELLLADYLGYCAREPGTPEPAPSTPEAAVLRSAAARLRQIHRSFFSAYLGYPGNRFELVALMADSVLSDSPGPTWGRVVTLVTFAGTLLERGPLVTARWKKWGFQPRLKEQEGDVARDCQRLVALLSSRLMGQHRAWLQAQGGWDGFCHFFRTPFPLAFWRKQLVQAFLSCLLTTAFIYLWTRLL

Acetylcholinesterase = Acetylcholinesterase (Homo sapiens, UniProt P22303); test: Inhibition of acetylcholine esterase (unknown origin)
Chain of Acetylcholinesterase (P22303 whole entry): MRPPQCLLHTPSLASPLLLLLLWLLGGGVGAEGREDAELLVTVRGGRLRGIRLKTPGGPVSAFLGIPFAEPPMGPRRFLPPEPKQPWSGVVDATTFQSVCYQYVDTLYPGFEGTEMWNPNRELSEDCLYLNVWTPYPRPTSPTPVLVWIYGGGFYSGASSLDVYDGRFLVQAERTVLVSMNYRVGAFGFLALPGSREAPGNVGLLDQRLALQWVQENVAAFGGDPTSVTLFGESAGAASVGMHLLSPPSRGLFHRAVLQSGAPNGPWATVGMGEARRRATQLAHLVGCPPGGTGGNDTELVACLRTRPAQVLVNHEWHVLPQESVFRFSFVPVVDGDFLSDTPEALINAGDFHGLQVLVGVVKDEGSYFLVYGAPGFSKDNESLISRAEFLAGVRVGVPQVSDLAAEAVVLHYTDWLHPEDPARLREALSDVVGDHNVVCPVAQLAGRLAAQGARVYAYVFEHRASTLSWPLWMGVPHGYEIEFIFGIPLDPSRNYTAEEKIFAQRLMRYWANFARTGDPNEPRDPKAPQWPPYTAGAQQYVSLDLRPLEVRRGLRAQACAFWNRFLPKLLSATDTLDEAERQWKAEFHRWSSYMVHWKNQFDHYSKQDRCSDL

[1] = Inhibition of CUG-RNA/MBLN1 (unknown origin) interaction
[2] = target: RAC-alpha serine/threonine-protein kinase (Homo sapiens, UniProt P31749); test: Inhibition of Akt1 (unknown origin)
Chain of RAC-alpha serine/threonine-protein kinase (P31749 whole entry): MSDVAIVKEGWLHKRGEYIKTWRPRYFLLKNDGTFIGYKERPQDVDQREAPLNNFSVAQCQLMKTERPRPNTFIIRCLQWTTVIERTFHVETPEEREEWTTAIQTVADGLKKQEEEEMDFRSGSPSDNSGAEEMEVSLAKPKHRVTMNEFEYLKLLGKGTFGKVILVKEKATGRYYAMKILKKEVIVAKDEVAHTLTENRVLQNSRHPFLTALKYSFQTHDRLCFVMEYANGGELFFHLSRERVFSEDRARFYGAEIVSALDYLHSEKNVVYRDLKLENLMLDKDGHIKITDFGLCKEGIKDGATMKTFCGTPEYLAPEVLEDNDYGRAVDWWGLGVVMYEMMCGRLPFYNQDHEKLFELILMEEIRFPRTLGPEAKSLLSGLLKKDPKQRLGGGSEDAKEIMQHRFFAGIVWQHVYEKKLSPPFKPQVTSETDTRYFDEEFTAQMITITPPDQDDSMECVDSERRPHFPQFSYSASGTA

[3] = target: T3, Glutathione S-transferase Mu 1 (Mus musculus, UniProt P10649); test: Inhibition of mouse GSTM1-1
T3 sequence (P10649 whole entry): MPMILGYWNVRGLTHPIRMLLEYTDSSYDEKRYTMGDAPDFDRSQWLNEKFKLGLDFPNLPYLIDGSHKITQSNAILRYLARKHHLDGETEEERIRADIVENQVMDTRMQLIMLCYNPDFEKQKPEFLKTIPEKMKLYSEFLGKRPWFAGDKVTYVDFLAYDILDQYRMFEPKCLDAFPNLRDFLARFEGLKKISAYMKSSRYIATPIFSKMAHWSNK

[4] = Binding affinity to G-quadruplex RNA (unknown origin)
[5] = target: Cyclin-dependent kinase 1 (Homo sapiens, UniProt P06493); test: Inhibition of CDK1 (unknown origin)
Chain of Cyclin-dependent kinase 1 (P06493 whole entry): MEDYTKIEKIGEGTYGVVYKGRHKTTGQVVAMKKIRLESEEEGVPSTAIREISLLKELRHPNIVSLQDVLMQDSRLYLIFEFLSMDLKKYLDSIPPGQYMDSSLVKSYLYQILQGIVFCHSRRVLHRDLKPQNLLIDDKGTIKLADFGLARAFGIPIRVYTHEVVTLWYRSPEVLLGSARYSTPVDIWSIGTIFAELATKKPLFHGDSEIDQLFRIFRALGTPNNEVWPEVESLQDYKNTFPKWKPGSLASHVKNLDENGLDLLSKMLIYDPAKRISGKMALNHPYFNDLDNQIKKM

[6] = Binding affinity to H-telo G-quadruplex DNA (unknown origin)
[7] = Binding affinity to double strand DNA (unknown origin)

Ki (Beta-casein): > 0.001 µM
Ki (Bcl-2-like protein 10): > 0.001 µM
Compound: CN(C)CC[C@H](CSc1ccccc1)Nc1ccc(S(=O)(=O)NC(=O)c2ccc(N3CCN(Cc4ccccc4-c4ccc(Cl)cc4)CC3)cc2)cc1[N+](=O)[O-] [ABT 737]

Compound: O=C(C[n+]1ccccc1)N/N=C/c1ccc(/C=N/NC(=O)C[n+]2ccccc2)cc1
IC50 (Acetylcholinesterase): 0.0023 µM

Ki [1]: 3.6 µM
Compound: CCc1nc2ccccc2cc1C(=O)N1CCC[C@H]1C(=O)N[C@H](CSSC[C@@H](NC(=O)[C@@H]1CCCN1C(=O)c1cc2ccccc2nc1CC)C(=O)N[C@@H](CCCCN)C(=O)NCCCN)C(=O)N[C@@H](CCCCN)C(=O)NCCCN

Compound: CC[C@H](C)[C@H](NC(=O)[C@H](CCCNC(=N)N)NC(=O)[C@H](CCC(=O)O)NC(=O)[C@H](Cc1cnc[nH]1)NC(=O)[C@H](CCCNC(=N)N)NC(=O)C(CCCCCCCCn1cc(CCCC(=O)NC(CCCCCCCCn2cc(C[C@H](NC(C)=O)C(=O)N[C@@H](Cc3ccccc3)C(=O)N[C@@H](Cc3c[nH]c4ccccc34)C(=O)N[C@@H](Cc3ccccc3)C(=O)N[C@@H](CC(C)C)C(=O)N[C@@H](CCCNC(=N)N)C(=O)NCC(N)=O)nn2)C(=O)N[C@H](C(=O)N[C@@H](Cc2ccccc2)C(=O)N[C@@H](Cc2ccc(O)cc2)C(=O)N[C@@H](CCCNC(=N)N)C(=O)N[C@@H](CC(C)C)C(=O)NCC(=O)N[C@@H](Cc2ccc(O)cc2)C(=O)NCCNC(=O)CCCC[C@H]2SC[C@H]3NC(=O)N[C@H]32)C(C)C)nn1)NC(C)=O)C(N)=O (stereo partly drawn)
Kd [2]: 0.2 µM

IC50 [3]: 0.05 µM
Compound: C[C@H](NC(=O)c1cccc(C(=O)N[C@@H](C)C(=O)N/N=C/c2ccc(SC[C@H](NC(=O)CC[C@H](N)C(=O)O)C(=O)NCC(=O)O)c([N+](=O)[O-])c2)c1)C(=O)N/N=C/c1ccc(SC[C@H](NC(=O)CC[C@H](N)C(=O)O)C(=O)NCC(=O)O)c([N+](=O)[O-])c1

deltaTm [4]: 20.7 K
Compound: NCCOc1cc(NC(=O)c2cc(OCc3cn(CCC(=O)O)nn3)cc(C(=O)Nc3cc(OCCN)c4ccccc4n3)n2)nc2ccccc12

Compound: c1ccc2[nH]c(-c3cc[nH]n3)nc2c1
IC50 [5]: 28 µM

deltaTm [6]: 28 K
deltaTm [7]: 0.1 K
Compound: O=C(Nc1cc(OCCN2CCCC2)c2ccccc2n1)c1cc(OCc2cn([C@H]3O[C@H](CO)[C@@H](O)[C@H](O)[C@H]3O)nn2)cc(C(=O)Nc2cc(OCCN3CCCC3)c3ccccc3n2)n1

Compound: C[N+](C)(C)CCCCCCCCCC[N+](C)(C)C [DECAMETHONIUM BROMIDE]
IC50 (Acetylcholinesterase): 1 µM

deltaTm [6]: 30 K
deltaTm [7]: 0 K
Compound: NCCOc1cc(NC(=O)c2cc(OCc3cn([C@H]4O[C@H](CO)[C@@H](O)[C@H](O)[C@H]4O)nn3)cc(C(=O)Nc3cc(OCCN)c4ccccc4n3)n2)nc2ccccc12
